Assay results reported in PubChem BioAssay AID687005 (Broad Institute, 2013).
Inconclusive results are not listed. Activity calls are given as the source filed them.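 The calls were made as follows: active = Compounds that reduce signal, with fitted half-maximal dose at or under twice the top valid tested dose; inconclusive = Poor fit, or flat curve losing 30 to 70% of signal; inactive = Potency past limit, flat within 30%, or opposite direction.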

Assay: viability loss in HEK293T cells – cell-based, ATP luminescence, cherry-pick samples, cytotoxicity control, dose response (AID 687005)
Settings: HEK293T viability, ATP luminescence (CellTiter-Glo), 48 h

SMILES | activity change, negative = cytotoxicity (at 26 µM (top of the series)) | also measured
CO[C@H]1CN(C)C(=O)c2ccc(NC(=O)C3CC3)cc2OC[C@@H](C)N(Cc2ccc(F)cc2)C[C@@H]1C | 37.9% (inactive) | 
C[C@@H]1CN([C@@H](C)CO)C(=O)c2cc(NC(=O)CCN3CCOCC3)ccc2O[C@@H]1CN(C)Cc1ccc(C(=O)O)cc1 | -11.9% (inactive) | 
O=C(NC1CCCCC1)N[C@H]1C=C[C@@H](CC(=O)N2CCOCC2)O[C@@H]1CO | 17.4% (inactive) | 
COC(=O)C1=C(C)N(CC(C)C)C(=S)NC1c1cccc(F)c1 (configuration not stated) |  | activity change, negative = cytotoxicity (at 30 µM (top of the series)): -13.7% (inactive)
CC(C)NC(=O)N(C)C[C@@H]1OCCCC[C@H](C)Oc2ccc(NC(=O)c3ccccc3)cc2C(=O)N([C@H](C)CO)C[C@H]1C | -12.5% (inactive) | 
NC(=O)NCC#Cc1ccc2c(c1)[C@]1(C(=O)N2)[C@H](C(N)=O)[C@H]2C(=O)O[C@H](c3ccccc3)[C@H](c3ccccc3)N2[C@@H]1c1ccccc1OCCO | -5.26% (inactive) | 
C[C@H](CO)N1C[C@H](C)[C@@H](CN(C)C(=O)Nc2ccc(F)cc2)Oc2c(NS(=O)(=O)c3ccccc3)cccc2C1=O |  | activity change, negative = cytotoxicity (at 23.5 µM (top of the series)): -4.44% (inactive)
COCC(=O)N1[C@H](C#N)[C@H](c2ccc(C#Cc3ccccc3F)cc2)[C@H]1CO | 8.29% (inactive) | 
COc1ccc(OC(C)C(=O)NC(C)c2ccccc2)cc1 (configuration not stated) | -8.71% (inactive) | 
CC(=O)N1[C@@H]2CN(S(=O)(=O)c3ccccc3F)c3ccccc3[C@@H]2[C@@H]1CO | 5.73% (inactive) | 
C[C@H](CO)N1C[C@H](C)[C@H](CN(C)S(=O)(=O)c2ccccc2)Oc2ccc(NS(=O)(=O)c3ccc(F)cc3)cc2C1=O | -25.5% (inactive) | 
C[C@H](CO)N1C[C@H](C)[C@H](CN(C)C(=O)c2ccccn2)Oc2ncc(-c3ccccc3)cc2C1=O | -0.807% (inactive) | 
C[C@H](CO)N1C[C@H](C)[C@@H](CN(C)C(=O)C2CCOCC2)Oc2ncc(C#CCc3ccccc3)cc2C1=O | 6.08% (inactive) | 
O=C(C[C@H]1C[C@@H]2c3cc(NC(=O)c4cccnc4)ccc3O[C@@H]2[C@@H](CO)O1)NCCc1ccccc1 | -44.8% (inactive) | 
CCC(=O)N1[C@@H]2c3cccc(=O)n3C[C@H]1[C@H](CO)[C@H]2C(=O)NCc1ccccc1 | -16.7% (inactive) | 
C[C@@H]1CN([C@H](C)CO)C(=O)c2cc(N(C)C)ccc2O[C@@H]1CN(C)C(=O)Nc1ccc(C(F)(F)F)cc1 | -77.2% (inactive) | 

SMILES | activity change, negative = cytotoxicity (at 26 µM (top of the series)) | also measured
CN(C)CCCn1c(=O)n(C2CCCCC2)c(=O)c2c3c(sc21)CCCCC3 | 50.5% (inactive) | 
C[C@@H]1CN([C@H](C)CO)C(=O)CCCn2cc(nn2)CO[C@@H]1CN(C)C(=O)CCCN(C)C | -5.89% (inactive) | 
COc1cccc(S(=O)(=O)Nc2ccc3c(c2)OC[C@H](C)NC[C@@H](C)[C@H](OC)CN(C)C3=O)c1 | -4.71% (inactive) | 
N#Cc1ccc(-c2ccc3c(c2)[C@H]2[C@H](CCN2C(=O)Cc2ccccc2)[C@@H](CO)N3)cc1 |  | activity change, negative = cytotoxicity (at 23.5 µM (top of the series)): -73.4% (inactive)
Cc1noc(C)c1NC(=O)N(C)C[C@H]1OCCCC[C@@H](C)Oc2ccc(NC(=O)NC(C)C)cc2C(=O)N([C@H](C)CO)C[C@H]1C | -10.9% (inactive) | 
O=C(CN(c1ccccc1)S(=O)(=O)c1ccc(F)cc1)NC1CCS(=O)(=O)C1 (configuration not stated) | -0.328% (inactive) | 
O=C(c1cccnc1)N1C[C@H]2[C@@H](c3ccccc31)[C@@H](CO)N2C(=O)Nc1ccc(F)cc1 | -19.7% (inactive) | 
CC(C)CC#Cc1cnc2c(c1)C(=O)N([C@H](C)CO)C[C@@H](C)[C@@H](CN(C)C(=O)c1ccc3c(c1)OCO3)O2 | 33.9% (inactive) | 
C[C@@H]1CN([C@@H](C)CO)C(=O)c2cc(NS(=O)(=O)c3cn(C)cn3)ccc2O[C@@H]1CN(C)C(=O)Nc1cccc2ccccc12 | -15.2% (inactive) | 
Cc1ccc(NC(=O)[C@H](C)NC(=O)C2CCN(C(=O)[C@@H](N)C(C)C)CC2)cc1 | -1.97% (inactive) | 
O=C([C@@H]1[C@@H](CO)[C@@H]2Cn3c(cccc3=O)[C@@H]2N1CCC(F)(F)F)N1CCCCC1 | 1.78% (inactive) | 
O=C(NCc1ccc(F)cc1)C1C2C=CC3(CN(Cc4cccnc4)C(=O)C13)O2 (configuration not stated) | 9.79% (inactive) | 
C[C@H](CO)N1C[C@H](C)[C@H](CN(C)C(=O)Nc2cccc3ccccc23)Oc2ccc(NC(=O)Nc3ccccc3)cc2C1=O | 2.5% (inactive) | 
COc1cccc(NC(=O)CN2CCN(S(=O)(=O)c3ccc(C(C)C)cc3)CC2)c1 | 35.1% (inactive) | 
O=C(COC(=O)CCC1CCCC1)Nc1nc2c(F)c(F)c(F)cc2s1 | -8.53% (inactive) | 
C[C@H]1CN([C@@H](C)CO)C(=O)CCCn2nncc2CO[C@H]1CN(C)C(=O)Oc1cccc2ccccc12 | -6.41% (inactive) | 
